Experimental data taken from paper PMC6190683 (Bioorganic & medicinal chemistry letters, 2017).

Biological target: Mtb NadE (Mycobacterium tuberculosis, UniProt P9WJJ3)
Assay: ammonia-dependent Mtb NadE inhibition assay
Format: biochemical

Mtb NadE, sequence (P9WJJ3 whole entry): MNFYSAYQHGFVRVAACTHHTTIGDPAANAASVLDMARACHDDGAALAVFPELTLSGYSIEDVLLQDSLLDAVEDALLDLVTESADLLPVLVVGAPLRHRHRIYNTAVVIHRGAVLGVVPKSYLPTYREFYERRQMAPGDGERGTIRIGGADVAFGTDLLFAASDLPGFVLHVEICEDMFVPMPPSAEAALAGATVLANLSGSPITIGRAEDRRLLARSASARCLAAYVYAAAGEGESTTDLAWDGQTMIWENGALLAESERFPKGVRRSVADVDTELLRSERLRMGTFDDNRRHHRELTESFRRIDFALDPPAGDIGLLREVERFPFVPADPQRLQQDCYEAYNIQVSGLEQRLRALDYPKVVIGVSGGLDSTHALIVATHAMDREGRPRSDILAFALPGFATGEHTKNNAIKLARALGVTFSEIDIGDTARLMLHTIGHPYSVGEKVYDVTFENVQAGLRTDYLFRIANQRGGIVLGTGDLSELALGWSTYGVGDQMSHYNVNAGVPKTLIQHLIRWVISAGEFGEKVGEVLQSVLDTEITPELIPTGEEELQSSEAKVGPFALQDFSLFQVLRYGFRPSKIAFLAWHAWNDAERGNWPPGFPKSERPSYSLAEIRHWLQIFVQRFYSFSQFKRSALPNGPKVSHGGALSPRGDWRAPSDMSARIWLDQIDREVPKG

| Compound | IC50 [µM] |
| --- | --- |
| O=C(Nc1ccc([N+](=O)[O-])cc1)Nc1ccc(S(=O)(=O)Nc2ccc([N+](=O)[O-])cc2)cc1 [Compound 4f] | > 200 |
| COc1ccc(NS(=O)(=O)c2ccc(NC(=O)Nc3ccc([N+](=O)[O-])cc3)cc2)cc1 [Compound 4d] | > 200 |
| O=C(Nc1ccc([N+](=O)[O-])cc1)Nc1ccc(S(=O)(=O)Nc2cccc(C(F)(F)F)c2)cc1 [Compound 4h] | > 200 |
| O=C(Nc1ccc([N+](=O)[O-])cc1)Nc1ccc(S(=O)(=O)Nc2ccccc2)cc1 [Compound 4l] | > 200 |
